Measurements taken from PubChem BioAssay AID1963846 (Molecular Pharmacology Branch, DTP, NCI, 2024).

System: 454973-116-R2-J3-PDC complex spheroid viability
Experiment: Anticancer human tumor 454973-116-R2-J3-PDC patient-derived pancreatic carcinoma cell line growth inhibition [POLQ]
Details: for IC50: curve of first compound; for viability, T/C: stronger effect = lower value
Method in brief: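 PDC + HUVEC + MSC complex spheroids; POLQ inhibitors ± partner drugs; top conc. at/near clinical Cmax, else 10 microM (SN-38 1 microM), half-log dilutions; 37 degrees C, 5% CO2.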

[1] = second compound 0.0316 µM, first compound 0.0316 µM
[2] = second compound 0.0316 µM, first compound 0.1 µM
[3] = second compound 0.0316 µM, first compound 0.316 µM
[4] = second compound 0.0316 µM, first compound 1 µM
[5] = second compound 0.0316 µM, first compound 3.16 µM
[6] = second compound 0.0316 µM, first compound 10 µM
[7] = second compound 0.1 µM, first compound 0.0316 µM
[8] = second compound 0.1 µM, first compound 0.1 µM
[9] = second compound 0.1 µM, first compound 0.316 µM
[10] = second compound 0.1 µM, first compound 1 µM
[11] = second compound 0.1 µM, first compound 3.16 µM
[12] = second compound 0.1 µM, first compound 10 µM
[13] = second compound 0.316 µM, first compound 0.0316 µM
[14] = second compound 0.316 µM, first compound 0.1 µM
[15] = second compound 0.316 µM, first compound 0.316 µM
[16] = second compound 0.316 µM, first compound 1 µM
[17] = second compound 0.316 µM, first compound 3.16 µM
[18] = second compound 0.316 µM, first compound 10 µM
[19] = second compound 1 µM, first compound 0.0316 µM
[20] = second compound 1 µM, first compound 0.1 µM
[21] = second compound 1 µM, first compound 0.316 µM
[22] = second compound 1 µM, first compound 1 µM
[23] = second compound 1 µM, first compound 3.16 µM
[24] = second compound 1 µM, first compound 10 µM
[25] = second compound 3.16 µM, first compound 0.0316 µM
[26] = second compound 3.16 µM, first compound 0.1 µM
[27] = second compound 3.16 µM, first compound 0.316 µM
[28] = second compound 3.16 µM, first compound 1 µM
[29] = second compound 3.16 µM, first compound 3.16 µM
[30] = second compound 3.16 µM, first compound 10 µM
[31] = second compound 10 µM, first compound 0.0316 µM
[32] = second compound 10 µM, first compound 0.1 µM
[33] = second compound 10 µM, first compound 0.316 µM
[34] = second compound 10 µM, first compound 1 µM
[35] = second compound 10 µM, first compound 3.16 µM
[36] = second compound 10 µM, first compound 10 µM
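Also: spheroids exposed to drugs for seven days before measurement.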
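For viability, T/C in this document: percent viability relative to DMSO vehicle control wells taken as 100%.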

For CC1COCCN1c1cc(-c2ccnn2C)c2ccnc(-c3ccn[nH]3)c2n1 (stereo not drawn) + Cc1cccc(N(C)C(=O)C2C(O)CCN2c2nc(C)cc(C(F)(F)F)c2C#N)c1, the IC50 (second compound 0.0316 µM) was 0.207 µM, the IC50 (second compound 0.1 µM) was 0.202 µM and the IC50 (second compound 0.316 µM) was 0.198 µM. The IC50 (second compound 1 µM) was 0.195 µM, the IC50 (second compound 3.16 µM) was 0.192 µM and the IC50 (second compound 10 µM) was 0.181 µM. The viability, T/C [1] was 95.3%, the viability, T/C [2] was 73.4% and the viability, T/C [3] was 37%. For the same molecule, the viability, T/C [4] was 21.7%, the viability, T/C [5] was 22.3% and the viability, T/C [6] was 25.4%. For the same molecule, the viability, T/C [7] was 92.6%, the viability, T/C [8] was 74.4% and the viability, T/C [9] was 35%. It also gave a viability, T/C [10] of 20.8%, a viability, T/C [11] of 21.3% and a viability, T/C [12] of 27.8%. The viability, T/C [13] was 97.2%, the viability, T/C [14] was 73.3% and the viability, T/C [15] was 34.5%. It also gave a viability, T/C [16] of 20%, a viability, T/C [17] of 20.1% and a viability, T/C [18] of 25%. For the same molecule, the viability, T/C [19] was 105%, the viability, T/C [20] was 71.7% and the viability, T/C [21] was 35.3%. It also gave a viability, T/C [22] of 21.3%, a viability, T/C [23] of 22% and a viability, T/C [24] of 25.4%. The viability, T/C [25] was 113%, the viability, T/C [26] was 71.8% and the viability, T/C [27] was 34.1%. The viability, T/C [28] was 21.7%, the viability, T/C [29] was 21.8% and the viability, T/C [30] was 26.4%. The viability, T/C [31] was 97.9%, the viability, T/C [32] was 67.7% and the viability, T/C [33] was 34.2%. It also gave a viability, T/C [34] of 19.5%, a viability, T/C [35] of 24.4% and a viability, T/C [36] of 23.1%.

Molecule CC1COCCN1c1cc(C2(S(C)(=N)=O)CC2)nc(-c2ccnc3[nH]ccc23)n1 (stereo not drawn) + Cc1cccc(N(C)C(=O)C2C(O)CCN2c2nc(C)cc(C(F)(F)F)c2C#N)c1 has an IC50 (second compound 0.0316 µM) of 6.39 µM, an IC50 (second compound 0.1 µM) of 6.9 µM and an IC50 (second compound 0.316 µM) of 5.75 µM. It also gave an IC50 (second compound 1 µM) of 5.92 µM, an IC50 (second compound 3.16 µM) of 6.6 µM and an IC50 (second compound 10 µM) of 5.9 µM. For the same molecule, the viability, T/C [1] was 111%, the viability, T/C [2] was 105% and the viability, T/C [3] was 103%. The viability, T/C [4] was 108%, the viability, T/C [5] was 85.2% and the viability, T/C [6] was 27.4%. It also gave a viability, T/C [7] of 111%, a viability, T/C [8] of 116% and a viability, T/C [9] of 105%. For the same molecule, the viability, T/C [10] was 104%, the viability, T/C [11] was 75.2% and the viability, T/C [12] was 37.9%. For the same molecule, the viability, T/C [13] was 104%, the viability, T/C [14] was 107% and the viability, T/C [15] was 111%. The viability, T/C [16] was 110%, the viability, T/C [17] was 72.4% and the viability, T/C [18] was 29.4%. It also gave a viability, T/C [19] of 111%, a viability, T/C [20] of 113% and a viability, T/C [21] of 114%. It also gave a viability, T/C [22] of 109%, a viability, T/C [23] of 75% and a viability, T/C [24] of 29.1%. It also gave a viability, T/C [25] of 117%, a viability, T/C [26] of 112% and a viability, T/C [27] of 113%. The viability, T/C [28] was 96.3%, the viability, T/C [29] was 80.8% and the viability, T/C [30] was 33%. It also gave a viability, T/C [31] of 114%, a viability, T/C [32] of 112% and a viability, T/C [33] of 106%. The viability, T/C [34] was 102%, the viability, T/C [35] was 74.6% and the viability, T/C [36] was 28.8%.

In the case of CCCS(=O)(=O)Nc1ccc(F)c(C(=O)c2c[nH]c3ncc(-c4ccc(Cl)cc4)cc23)c1F + Cc1cccc(N(C)C(=O)C2C(O)CCN2c2nc(C)cc(C(F)(F)F)c2C#N)c1, the IC50 (second compound 0.0316 µM) is reported as 8.18 µM, the IC50 (second compound 0.1 µM) is reported as 8.77 µM and the IC50 (second compound 0.316 µM) is reported as 8.92 µM. The IC50 (second compound 1 µM) was 8.4 µM, the IC50 (second compound 3.16 µM) was 8.13 µM and the IC50 (second compound 10 µM) was 6.95 µM. It also gave a viability, T/C [1] of 108%, a viability, T/C [2] of 116% and a viability, T/C [3] of 112%. For the same molecule, the viability, T/C [4] was 118%, the viability, T/C [5] was 113% and the viability, T/C [6] was 36.7%. It also gave a viability, T/C [7] of 105%, a viability, T/C [8] of 111% and a viability, T/C [9] of 115%. The viability, T/C [10] was 122%, the viability, T/C [11] was 111% and the viability, T/C [12] was 42.1%. It also gave a viability, T/C [13] of 108%, a viability, T/C [14] of 116% and a viability, T/C [15] of 118%. The viability, T/C [16] was 113%, the viability, T/C [17] was 123% and the viability, T/C [18] was 42.7%. It also gave a viability, T/C [19] of 136%, a viability, T/C [20] of 110% and a viability, T/C [21] of 114%. For the same molecule, the viability, T/C [22] was 111%, the viability, T/C [23] was 126% and the viability, T/C [24] was 37.3%. For the same molecule, the viability, T/C [25] was 117%, the viability, T/C [26] was 110% and the viability, T/C [27] was 104%. It also gave a viability, T/C [28] of 105%, a viability, T/C [29] of 115% and a viability, T/C [30] of 36.8%. It also gave a viability, T/C [31] of 120%, a viability, T/C [32] of 112% and a viability, T/C [33] of 110%. The viability, T/C [34] was 111%, the viability, T/C [35] was 118% and the viability, T/C [36] was 20.3%.

With Cn1ncnc1[C@H]1c2n[nH]c(=O)c3cc(F)cc(c23)N[C@@H]1c1ccc(F)cc1 + Cc1cccc(N(C)C(=O)C2C(O)CCN2c2nc(C)cc(C(F)(F)F)c2C#N)c1 the IC50 (second compound 0.0316 µM) was > 0.1 µM, the IC50 (second compound 0.1 µM) was > 0.1 µM and the IC50 (second compound 0.316 µM) was > 0.1 µM. The IC50 (second compound 1 µM) was > 0.1 µM, the IC50 (second compound 3.16 µM) was > 0.1 µM and the IC50 (second compound 10 µM) was > 0.1 µM. For the same molecule, the viability, T/C (second compound 0.0316 µM, first compound 0.000316 µM) was 109%, the viability, T/C (second compound 0.0316 µM, first compound 0.001 µM) was 97% and the viability, T/C (second compound 0.0316 µM, first compound 0.00316 µM) was 91.8%. The viability, T/C (second compound 0.0316 µM, first compound 0.01 µM) was 96.1%, the viability, T/C [1] was 108% and the viability, T/C [2] was 89.6%. For the same molecule, the viability, T/C (second compound 0.1 µM, first compound 0.000316 µM) was 106%, the viability, T/C (second compound 0.1 µM, first compound 0.001 µM) was 100% and the viability, T/C (second compound 0.1 µM, first compound 0.00316 µM) was 95.6%. The viability, T/C (second compound 0.1 µM, first compound 0.01 µM) was 97.2%, the viability, T/C [7] was 94.3% and the viability, T/C [8] was 90.1%. It also gave a viability, T/C (second compound 0.316 µM, first compound 0.000316 µM) of 102%, a viability, T/C (second compound 0.316 µM, first compound 0.001 µM) of 104% and a viability, T/C (second compound 0.316 µM, first compound 0.00316 µM) of 98.5%. It also gave a viability, T/C (second compound 0.316 µM, first compound 0.01 µM) of 97.6%, a viability, T/C [13] of 98.5% and a viability, T/C [14] of 85.2%. It also gave a viability, T/C (second compound 1 µM, first compound 0.000316 µM) of 110%, a viability, T/C (second compound 1 µM, first compound 0.001 µM) of 102% and a viability, T/C (second compound 1 µM, first compound 0.00316 µM) of 103%. For the same molecule, the viability, T/C (second compound 1 µM, first compound 0.01 µM) was 105%, the viability, T/C [19] was 91.7% and the viability, T/C [20] was 91.4%. The viability, T/C (second compound 3.16 µM, first compound 0.000316 µM) was 105%, the viability, T/C (second compound 3.16 µM, first compound 0.001 µM) was 119% and the viability, T/C (second compound 3.16 µM, first compound 0.00316 µM) was 103%. For the same molecule, the viability, T/C (second compound 3.16 µM, first compound 0.01 µM) was 108%, the viability, T/C [25] was 97.2% and the viability, T/C [26] was 85.6%. The viability, T/C (second compound 10 µM, first compound 0.000316 µM) was 107%, the viability, T/C (second compound 10 µM, first compound 0.001 µM) was 96% and the viability, T/C (second compound 10 µM, first compound 0.00316 µM) was 97.5%. For the same molecule, the viability, T/C (second compound 10 µM, first compound 0.01 µM) was 91.8%, the viability, T/C [31] was 101% and the viability, T/C [32] was 85%.
